Experiment [1] addresses T1, Brd4 bromodomain 1 (BRD4(1)) (Homo sapiens, UniProt O60885).
T1 construct: made in house; host or cells: E. coli BL21(DE3)
As to the kind of experiment: Inhibition of tetra-acetylated histone H4 binding to Brd4 bromodomain 1 (TR-FRET). The conditions noted are these: tetra-acetylated histone H4 peptide, first bromodomain of Brd4. The gist of the method:
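His-tagged BRD4(1) from E. coli (200 nM) with biotinylated tetra-acetylated H4 peptide (25-50 nM), Eu-cryptate streptavidin and XL665 anti-His, in HEPES pH 7.4/phosphate/KF buffer, 0.2% DMSO. After 2 h at room temperature, TR-FRET 665/620 nm ratio read; IC50 from dose-response curves.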

Experiment [2] has as its system c-myc. The experiment in a line: Inhibition of c-myc expression (mRNA, real-time PCR) in MV4-11 cells. It counts as cell-based. The conditions noted are these: Human AML MV4-11 cells, 3 h, cMYC mRNA. In a few lines:
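MV4-11 cells treated 3 h at 37° C with increasing compound concentrations or 0.1% DMSO, in triplicate. cMYC mRNA quantified by one-step TaqMan real-time PCR, Ct normalized to internal control (Cyclophilin primers used), fold expression relative to control.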

Experiment [3] concerns human AML MV-4-11 cells. The experiment in a line: Inhibition of cell proliferation in MV4-11 cells (CellTiter Aqueous One). It counts as cell-based. The conditions noted are these: for IC50: MV4-11, 72 h; for Cell Proliferation activity: 72 h. In a few lines:
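Exponentially growing MV-4-11 cells (5×10^4/well) were treated immediately with two-fold dilutions of compound from 30 μM to 0.2 μM, in triplicate, for 72 h at 37° C, 5% CO2. Viability was measured by MTS absorbance at 490 nm after 3–4 h. Proliferation relative to DMSO after blank correction gave IC50.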

In experiment [4] the test system is hIL-6 mRNA. The experiment in a line: Inhibition of hIL-6 mRNA transcription in LPS-stimulated U937 cells. Type of experiment: cell-based. The conditions noted are these: Homo sapiens, U-937; PMA-differentiated U937 cells, 1 h pretreatment, 1 ug/mL LPS stimulation, 3 h; read-out: IL-6 activity (Inhibition of hIL-6 mRNA Transcription). The method, then:
In this example, hIL-6 mRNA in tissue culture cells was quantitated to measure the transcriptional inhibition of hIL-6 when treated with a compound of the invention.
Human leukemic monocyte lymphoma U937 cells (CRL-1593.2) were plated at a density of 3.2×10^4 cells per well in a 96-well plate in 100 μL RPMI-1640 containing 10% FBS and penicillin/streptomycin, and differentiated into macrophages for 3 days in 60 ng/mL PMA ([…]) at 37° C. in 5% CO2 prior to the addition of compound. The cells were pretreated for 1 h with increasing concentrations of test compound in 0.1% DMSO prior to stimulation with 1 ug/mL lipopolysaccharide from Escherichia coli. Triplicate wells were used for each concentration. The cells were incubated at 37° C., 5% CO2 for 3 h before the cells were harvested. At time of harvest, media was removed and cells were rinsed in 200 μL PBS. Cells were harvested using the mRNA Catcher PLUS kit according to manufacturer's instructions. The eluted mRNA was then used in a one-step quantitative real-time PCR reaction using components of the RNA UltraSense™ One-Step Kit (Life Technologies) together with Applied Biosystems TaqMan® primer-probes for hIL-6 and Cyclophilin. Real-time PCR plates were run on a VIa™ 7 real time PCR machine (Applied Biosystems), data was analyzed, normalizing the Ct values for hIL-6 to an internal control, prior to determining the fold expression of each sample, relative to the control.

Counter-ions that a name gives are not always drawn.

For the compound `Cc1noc(C)c1-c1cc(NCc2ccccc2)c2ncn(Cc3ccccc3)c2c1` [Example Compound 9, N,1-Dibenzyl-6-(3,5-dimethylisoxazol-4-yl)-1H-benzo[d]imidazol-4-amine], the IC50 in experiment [1], in experiment [2], in experiment [3] and in experiment [4] was 3 to 30 µM each time.
In the case of `Cc1noc(C)c1-c1ccc2c(c1)N(Cc1ccccc1)C(=O)NC2` [Example Compound 12, 1-Benzyl-7-(3,5-dimethylisoxazol-4-yl)-3,4-dihydroquinazolin-2(1H)-one], the IC50 in experiment [1] is at most 0.3 µM; in experiment [2], 0.3 to 3 µM; in experiment [3], 0.3 to 3 µM; in experiment [4] it was 0.3 to 3 µM.
As for `Cc1noc(C)c1-c1cc([N+](=O)[O-])c2nc(C)n(CC3CC3)c2c1` [Example Compound 14, 4-(1-(cyclopropylmethyl)-2-methyl-4-nitro-1H-benzo[d]imidazol-6-yl)-3,5-dimethylisoxazole], the IC50 is at most 0.3 µM in experiment [1], 0.3 to 3 µM in experiment [2], 3 to 30 µM in experiment [3] and 0.3 to 3 µM in experiment [4].
On to `Cc1noc(C)c1-c1cc([N+](=O)[O-])c2[nH]c(=O)n(Cc3ccccc3)c2c1` [Example Compound 15, 1-benzyl-6-(3,5-dimethylisoxazol-4-yl)-4-nitro-1H-benzo[d]imidazol-2(3H)-one], for which the IC50 is at most 0.3 µM in experiment [1], 0.3 to 3 µM in experiment [2], 0.3 to 3 µM in experiment [3] and 0.3 to 3 µM in experiment [4].
`CCOc1nc2c(N)cc(-c3c(C)noc3C)cc2n1Cc1ccccc1` [Example Compound 17, 1-benzyl-6-(3,5-dimethylisoxazol-4-yl)-2-ethoxy-1H-benzo[d]imidazol-4-amine]: the IC50 was at most 0.3 µM in experiment [1], at most 0.3 µM in experiment [2], 0.3 to 3 µM in experiment [3] and 0.3 to 3 µM in experiment [4].
As for `Cc1noc(C)c1-c1cc(CN)c2[nH]c(=O)n(Cc3ccccc3)c2c1` [Example Compound 22, 4-(aminomethyl)-1-benzyl-6-(3,5-dimethylisoxazol-4-yl)-1H-benzo[d]imidazol-2(3H)-one], the IC50 in experiment [1], in experiment [2], in experiment [3] and in experiment [4] was 0.3 to 3 µM each time.
In the case of `Cc1noc(C)c1-c1cc2c(c(C)nn2Cc2ccc(F)cc2)[n+]([O-])c1` [Example Compound 24, 6-(3,5-dimethylisoxazol-4-yl)-1-(4-fluorobenzyl)-3-methyl-1H-pyrazolo[4,3-b]pyridine-4-oxide], the IC50 in experiment [1] was at most 0.3 µM; in experiment [2], 3 to 30 µM; in experiment [4], 0.3 to 3 µM. Moreover, the “Cell Proliferation activity” value in experiment [3] is on record as “Not active”.
For the compound `Cc1noc(C)c1-c1ccc2ncn(Cc3ccccc3)c2n1` [Example Compound 26, 4-(3-benzyl-3H-imidazo[4,5-b]pyridin-5-yl)-3,5-dimethylisoxazole], the IC50 in experiment [1] is 0.3 to 3 µM; in experiment [2], 3 to 30 µM; in experiment [3], 0.3 to 3 µM; in experiment [4], 0.3 to 3 µM.
As for `Cc1noc(C)c1-c1cc(N)c2ncn(Cc3ccc(F)cc3)c2c1` [Example Compound 27, 6-(3,5-dimethylisoxazol-4-yl)-1-(4-fluorobenzyl)-1H-benzo[d]imidazol-4-amine], the IC50 in experiment [1] was at most 0.3 µM; in experiment [2] it was 0.3 to 3 µM; in experiment [3], 0.3 to 3 µM; in experiment [4] it was 0.3 to 3 µM.
On to `CNc1cc(-c2c(C)noc2C)cc2c1ncn2Cc1ccc(F)cc1` [Example Compound 28, 6-(3,5-dimethylisoxazol-4-yl)-1-(4-fluorobenzyl)-N-methyl-1H-benzo[d]imidazol-4-amine], for which the IC50 in experiment [1] is at most 0.3 µM; in experiment [2] it was 0.3 to 3 µM; in experiment [3], 0.3 to 3 µM; in experiment [4], 0.3 to 3 µM.
On to `Cc1noc(C)c1-c1cc(N(C)C)c2ncn(Cc3ccc(F)cc3)c2c1` [Example Compound 29, 6-(3,5-dimethylisoxazol-4-yl)-1-(4-fluorobenzyl)-N,N-dimethyl-1H-benzo[d]imidazol-4-amine], for which the IC50 is at most 0.3 µM in experiment [1], 0.3 to 3 µM in experiment [2], 0.3 to 3 µM in experiment [3] and 0.3 to 3 µM in experiment [4].
With `Cc1noc(C)c1-c1cc2c(ncn2Cc2ccccc2)c(N)n1` [Example Compound 33, 1-benzyl-6-(3,5-dimethylisoxazol-4-yl)-1H-imidazo[4,5-c]pyridin-4-amine], the IC50 in experiment [1] was at most 0.3 µM; in experiment [2], 0.3 to 3 µM; in experiment [3], 3 to 30 µM; in experiment [4], 0.3 to 3 µM.
On to `Cc1noc(C)c1-c1cnc2c(Br)cn(Cc3ccccc3)c2c1` [Example Compound 34, 4-(1-benzyl-3-bromo-1H-pyrrolo[3,2-b]pyridin-6-yl)-3,5-dimethylisoxazole], for which the IC50 in experiment [1] is at most 0.3 µM; in experiment [2], 0.3 to 3 µM; in experiment [3] it was 0.3 to 3 µM; in experiment [4], 0.3 to 3 µM.
On to `Cc1noc(C)c1-c1cnc2c(C=O)cn(Cc3ccccc3)c2c1` [Example Compound 35, 1-benzyl-6-(3,5-dimethylisoxazol-4-yl)-1H-pyrrolo[3,2-b]pyridine-3-carbaldehyde], for which the IC50 is at most 0.3 µM in experiment [1], 0.3 to 3 µM in experiment [2], 0.3 to 3 µM in experiment [3] and 0.3 to 3 µM in experiment [4].
`CC(=O)c1cn(Cc2ccccc2)c2cc(-c3c(C)noc3C)cnc12` [Example Compound 36, 1-(1-benzyl-6-(3,5-dimethylisoxazol-4-yl)-1H-pyrrolo[3,2-b]pyridin-3-yl)ethanone]: the IC50 was at most 0.3 µM in experiment [1], 0.3 to 3 µM in experiment [2], 0.3 to 3 µM in experiment [3] and 0.3 to 3 µM in experiment [4].
`Cc1noc(C)c1-c1cc2c(ccn2Cc2ccccc2)nc1OC=O` [Example Compound 37, 1-benzyl-6-(3,5-dimethylisoxazol-4-yl)-1H-pyrrolo[3,2-b]pyridin-5-yl formate]: the IC50 in experiment [1] fell in the range of 0.3 to 3 µM; in experiment [2] it was 3 to 30 µM; in experiment [4], 3 to 30 µM. In addition, in experiment [3], the “Cell Proliferation activity” value is listed as “Not active”.
On to `Cc1noc(C)c1-c1cnc2nc(C)n(Cc3ccc(C(N)=O)cc3)c2c1` [Example Compound 38, 4-((6-(3,5-dimethylisoxazol-4-yl)-2-methyl-1H-imidazo[4,5-b]pyridin-1-yl)methyl)benzamide], for which the IC50 in experiment [1] was at most 0.3 µM; in experiment [2], 3 to 30 µM; in experiment [4] it was 3 to 30 µM. Further, the “Cell Proliferation activity” value in experiment [3] is “Not active”.
`Cc1noc(C)c1-c1cnc2c([N+](=O)[O-])cn(Cc3ccccc3)c2c1` [Example Compound 39, 4-(1-benzyl-3-nitro-1H-pyrrolo[3,2-b]pyridin-6-yl)-3,5-dimethylisoxazole]: the IC50 in experiment [1] was at most 0.3 µM; in experiment [2], 0.3 to 3 µM; in experiment [3], 0.3 to 3 µM; in experiment [4], 0.3 to 3 µM.
For `Cc1noc(C)c1-c1cnc2c(c1)ncn2Cc1ccc(Cl)cc1` [Example Compound 42, 4-(3-(4-chlorobenzyl)-3H-imidazo[4,5-b]pyridin-6-yl)-3,5-dimethylisoxazole], the IC50 in experiment [1] was 0.3 to 3 µM; in experiment [2], 3 to 30 µM; in experiment [3], 3 to 30 µM; in experiment [4], 3 to 30 µM.

Source of the values: US10363257B2 (ZENITH EPIGENETICS LTD., priority 2013, dated 2019).
